Data on 11 compounds can be found in ChEMBL document CHEMBL5728127, “Diarylalkanes as potent inhibitors of binuclear enzymes” (2020).

This assay addresses T1, Polyphenol oxidase 1 (Agaricus bisporus, UniProt Q00024).
T1 sequence (Q00024 whole entry): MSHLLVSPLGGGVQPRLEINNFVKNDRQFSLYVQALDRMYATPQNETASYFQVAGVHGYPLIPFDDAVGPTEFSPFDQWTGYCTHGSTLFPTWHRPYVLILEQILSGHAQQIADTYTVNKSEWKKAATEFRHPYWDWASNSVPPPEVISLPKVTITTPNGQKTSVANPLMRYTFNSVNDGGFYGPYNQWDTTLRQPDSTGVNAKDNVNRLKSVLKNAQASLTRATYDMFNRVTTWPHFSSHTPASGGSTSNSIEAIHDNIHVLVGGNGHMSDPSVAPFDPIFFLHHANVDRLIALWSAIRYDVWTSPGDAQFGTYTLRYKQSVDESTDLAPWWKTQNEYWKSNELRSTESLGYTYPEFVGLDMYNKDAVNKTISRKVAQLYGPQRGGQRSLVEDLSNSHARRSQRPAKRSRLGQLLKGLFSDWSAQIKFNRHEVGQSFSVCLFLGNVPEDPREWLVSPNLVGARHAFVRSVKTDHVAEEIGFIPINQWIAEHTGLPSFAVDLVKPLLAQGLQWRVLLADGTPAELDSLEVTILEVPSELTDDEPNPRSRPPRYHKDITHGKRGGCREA
In words: Using this method, the conversion of L-Dopa, a substrate of tyrosinase, into dopachrome is followed by monitoring absorption at 450 nm. Tyrosinase was prepared in 50 mM potassium phosphate buffer, pH 6.8 (assay buffer) at 2000 U/ml and stored at −20° C. in 1 ml aliquots prior to use. For use in assays, stock enzyme solutions were thawed and diluted to 200 U/ml with assay buffer. A 2 mM working solution of substrate, L-DOPA, was prepared in assay buffer for each assay. Samples were dissolved in 10% DMSO (0.5 ml) and diluted to 5 ml with assay buffer. The reaction mixture consisted of 0.050 ml 2 mM L-DOPA, 0.050 ml 200 U/ml mushroom tyrosinase and 0.050 ml inhibitor. Reaction volume was adjusted to 200 μl with assay buffer. […] Average velocity was determined from linear enzyme rate as measured by change in absorbance (ΔA450) at 450 nm per minute.
The IC50 is the concentration that inhibits the measured activity by half. For the compound `COc1ccc(CCCc2ccc(O)cc2O)c(OC)c1C`, the IC50 amounted to 0.24 µM.
As for `COc1ccc(CCC(O)c2c(O)cc(O)cc2O)cc1O` (stereo unspecified), the figure is 1200 µM.
Regarding `COc1cc(O)c(C(O)CCc2ccc(O)c(OC)c2)c(OC)c1` (stereo unspecified), the IC50 stood at 375 µM.
With `Oc1ccc(C(O)CCc2ccccc2O)c(O)c1` (stereo unspecified), the IC50 worked out at 0.7 µM.
Take `COc1ccc(CC(O)c2ccc(O)cc2O)cc1` (stereo unspecified): the IC50 was 77 µM.
`Oc1ccc(C(O)Cc2ccc(Cl)cc2Cl)c(O)c1` (stereo unspecified): the IC50 was found to be 1000 µM.
For `Oc1ccc(CCC(O)c2ccc(O)cc2)cc1` (stereo unspecified), the IC50 turned out to be 305 µM.
As for `COc1ccc(O)c(CCCc2ccc(O)cc2OC)c1`, the figure is 24 µM.
In the case of `Nc1ccc(CCC(O)c2c(O)cc(O)cc2O)cc1` (stereo unspecified) it was 8 µM; in that of `COc1ccc(CCC(O)c2cc(OC)ccc2O)c(OC)c1` (stereo unspecified), 1000 µM; in that of `CC(Cc1ccc(O)c(O)c1)C(C)Cc1ccc(O)c(O)c1` (stereo unspecified) [NORDIHYDROGUAIARETIC ACID], 700 µM.
